{"source": "patent US6605639B1", "about": "“Ligands of nuclear receptor” (Nuclear Receptor Research, Ltd., priority 1998, dated 2003)", "key": {"mouse and rat": {"test_system": "mouse and rat", "experiment": "Oral administration of ascochlorin to rodents", "type": "in vivo", "text": "These effects make ascochlorin adequate as a remedy for insulin resistance syndrome. In animal experiments, however, the anorexic effect is similar to the effect of enhancing the action of insulin, which makes it highly difficult to evaluate the drug effect as an insulin enhancing agent. Thus, attempts were made to synthesis derivatives having a relatively weak anorexic effect by synthesizing various derivatives through the modification of the molecular structure of ascochlorin."}, "white rabbits": {"test_system": "white rabbits", "experiment": "Inhibition of arteriosclerosis in white rabbits fed high fat feed", "conditions": "14 weeks", "experimental": "Thus, a high fat feed was prepared by adding 10% of hardened coconut oil, 2% of cholesterol, 0.5% of bovine bile powder and 0.04% or 0.01% of ascochlorin to a powdery marketed standard white rabbit feed and molded the mixture into pellets. Separately, another high fat feed for the control group was prepared without using ascochlorin.\nTwenty-four white rabbits weighing about 2 kg were divided into 4 groups at random. One of these groups was regarded as the control group, while the remaining 3 groups were respectively regarded as the clofibrate group, the ascochlorin 0.01% group and the ascochlorin 0.04% group at random. Then the experiment was carried out for 14 weeks."}, "[1]": {"test_system": "rats with adjuvant arthritis", "experiment": "Therapeutic effect on rat adjuvant arthritis", "type": "in vivo", "conditions": "for Inflammation score (5 grades, 1 normal to 5 disabled by swelling in both hind legs): 7 times, day 7", "description": "Rats with arthritis employed in Experiment 1 were individuals which suffered from serious arthritis caused by the injection of an adjuvant 45 days ago and thus crawled on forelegs since they could not bend hind legs. Drug effects were evaluated by observing walking, observation with the naked eye of the severity of inflammation in hind legs and the volume of swelling in legs. To 19 SD male rats (weighing about 300 g), Freund's […] adjuvant containing dead tubercle bacillus Aoyama B strain was subcutaneously injected into the tail root to induce arthritis in hind legs. Compound-6 was suspended in a tragacanth gum solution and orally administered at a ratio of 0.5 ml/100 g body weight. Compound-6 was administered to 3 groups including the high-dose model (HM; 50 mg/kg), the medium-dose model (MM; 25 mg/kg) and the low-dose model (LM; 10 mg/kg). Administration was made once a day in morning continuously 7 times. During this period, the hind leg volume was measured at the initiation of the experiment and 2, 4 and 7 days thereafter. The volume change was calculated by referring the volume at the initiation of the experiment as to 100%. On the 7th day, the inflammation conditions in hind legs were evaluated in 5 grades with the naked eye.\nImmediately after administration, the three Compound-6 groups were combined and divided again depending on the occurrence of arthritis (i.e., positive and negative groups). Then the data were compared with the data of the control group."}, "[2]": {"test_system": "patients suffered from hypercholesterolemia", "experiment": "Phase I clinical test", "type": "in vivo, human", "conditions": "for Serum total cholesterol: Mean ± SE", "description": "A phase I clinical test of Compound-6, one of the compounds of the present invention, was carried out with 17 female and male patients aged 40 to 82 suffered from hypercholesterolemia. The experiment was continued for 12 weeks and Compound-6 was administered in the first 8 weeks. […] From the 8th week to the 12th week (the placebo-administration period) a placebo was given without notifying the patients. The drug in a daily dose was divided into 3 portions and taken after meals. Each patient visited the hospital once a week and was subject to investigation and blood collection for analyzing serum."}, "db/db mice [3]": {"test_system": "db/db mice", "experiment": "Long-term oral administration to hereditary obese diabetic mice (pancreas function protecting effect)", "type": "in vivo, mouse", "text": "It has been already supported by the results of several experiments that oral administration of the compounds of the present invention enhances peripheral insulin sensitivity and ameliorates metabolic disorders in db/db mice. It is, however, noteworthy that the compounds of the present invention exert an effect in retaining the function pancreatic synthesis of insulin over a long period, which is defective in diabetes. This effect was clearly indicated by serum insulin level and pathologic observation on pancreas of db/db mice to which Compound-14 had been administered over about 1 year. […] Moreover, Compound-14 ameliorated urinary protein throughout the experimental period. […] Namely, there arose a conversion of non insulin-dependent diabetes mellitus into insulin-dependent diabetes mellitus,analogous to human type II diabetes. Even body weight was reduced to a level similar to that of normal litter after the 40th week, the db/db mice lacking leptin receptor underwent overeating and food energy, which could not be anabolized due to the poverty of insulin, was excreted from the body in a large amount.\nSince they lack hereditarily leptin […], db/db mice have no appetite control even at satiety. As a result, they suffer from hyperinsulinemia due to overeating and serious obesity, thereby undergoing the onset of diabetes. The compounds of the present invention were orally administered to db/db mice for 40 weeks (from 11 to 51 weeks after birth) (FIG. 2).\nAs obesity attained a maximum, insulin requirements exceeded insulin production levels. Thus, pancreatic Langerhans' islet β-cells having insulin depot granules therein were mostly degranulated and there arose insulin depot poverty. The pancreatic Langerhans' islet β-cells having been working severely to produce insulin in excess gradually fatigued. […] From 23rd week after birth, it became impossible to anabolize all of the food energy taken in excess due to the insufficient function of insulin, which induced a decrease in body weight. The food energy which could not be anabolized was excreted as urinary glucose. As a result, the urinary glucose increased with a decrease in the blood insulin level. […] Namely, there arose the conversion of noninsulin-dependent diabetes mellitus into insulin-dependent diabetes mellitus in clinical case of humans. […] However, Compound-14 has no function of restoring leptin receptor and thus exerts no effect on the process of the induction of obesity by hyperinsulinemia due to overeating.\nSince pancreatic Langerhans' islet β-cells are of key importance in various aspects of diabetes, the ability of the compound of the present invention to maintain the function of these cells over a long period of time, is very important in terms of the treatment and prevention of diabetes."}, "db/db mice [4]": {"test_system": "db/db mice", "conditions": "oral; cited from earlier work"}, "[5]": {"conditions": "three dose groups combined, total 14"}, "[6]": {"conditions": "After 10 weeks, placebo period after 8 weeks of drug (carry-over)"}, "[7]": {"conditions": "After 12 weeks, placebo period after 8 weeks of drug (carry-over)"}}, "note": "Values joined by “and” are separate entries in the source; they are usually repeats but may differ in a detail not shown here. Equal values may be shown once. “Also recorded” adds a separate entry of the source.", "data": [{"molecule": "3-[5-[l(R),2(S),6(S)-trimethyl-3-oxocylohexyl]-3-methyl-2,4-pentadienyl]-2,4-dihydroxy-5-chloro-6-methylbenzaldehyde [Compound-1]", "values": [{"measurement": "free compound in serum", "setting": "bovine serum", "value": "scarcely detected"}, {"measurement": "effects of oral administration", "setting": "mouse and rat; mouse and rat", "value": "anorexic effect as well as effects of lowering the blood glucose level, the serum lipid level and the serum insulin level"}, {"measurement": "blood pressure", "setting": "mouse and rat; oral, anesthetized rats and hypertensive rats", "value": "potent effect of lowering blood pressure"}, {"measurement": "lesions of obstruction in the coronary artery", "setting": "white rabbits; 0.01% and 0.04% in high fat feed", "value": "significantly alleviated"}, {"measurement": "survival until the completion of the experiment", "setting": "white rabbits; 0.01% and 0.04% in high fat feed, 6 animals per group", "value": "all individuals survived"}, {"measurement": "increase in the serum total cholesterol level", "setting": "white rabbits; high fat feed", "value": "would not suppress increase"}]}, {"molecule": "COc1c(Cl)c(C)c(C=O)c(O)c1C/C=C(C)/C=C/[C@@]1(C)[C@H](C)CCC(=O)[C@@H]1C", "note": "[Compound-6, 4-O-methylASC]", "values": [{"measurement": "Inflammation score (5 grades, 1 normal to 5 disabled by swelling in both hind legs)", "setting": "[1]; HM group, 50 mg/kg oral once a day", "value": 2.2}, {"measurement": "Inflammation score (5 grades, 1 normal to 5 disabled by swelling in both hind legs)", "setting": "[1]; LM group, 10 mg/kg oral once a day", "value": 3.2}, {"measurement": "Inflammation score (5 grades, 1 normal to 5 disabled by swelling in both hind legs)", "setting": "[1]; MM group, 25 mg/kg oral once a day", "value": 2.8}, {"measurement": "walking of rats disabled by swelling in joint", "setting": "[1]; after 1 week of oral administration", "value": "could walk again"}, {"measurement": "Arthritis (+), number of rats", "setting": "[1]; [5]", "value": 7}, {"measurement": "Arthritis (−), number of rats", "setting": "[1]; [5]", "value": 7}, {"measurement": "patients with vertigo", "setting": "[2]; 17 patients", "value": "one"}, {"measurement": "Serum total cholesterol, Decrease", "setting": "[2]; After 1 week, dose 0.5 (mg.kg)", "value": "−20", "unit": "%"}, {"measurement": "Serum total cholesterol", "setting": "[2]; After 1 week, dose 0.5 (mg.kg), n = 17", "value": "273 ± 62.7", "unit": "mg/dL"}, {"measurement": "Serum total cholesterol, Decrease", "setting": "[2]; After 2 weeks, dose 1 (mg.kg)", "value": "−22", "unit": "%"}, {"measurement": "Serum total cholesterol", "setting": "[2]; After 2 weeks, dose 1 (mg.kg), n = 17", "value": "266 ± 66.7", "unit": "mg/dL"}, {"measurement": "Serum total cholesterol, Decrease", "setting": "[2]; After 3 weeks, dose 2 (mg.kg)", "value": "−21", "unit": "%"}, {"measurement": "Serum total cholesterol", "setting": "[2]; After 3 weeks, dose 2 (mg.kg), n = 17", "value": "269 ± 66.0", "unit": "mg/dL"}, {"measurement": "Serum total cholesterol, Decrease", "setting": "[2]; After 4 weeks, dose 4 (mg.kg)", "value": "−28", "unit": "%"}, {"measurement": "Serum total cholesterol", "setting": "[2]; After 4 weeks, dose 4 (mg.kg), n = 17", "value": "254 ± 65.7", "unit": "mg/dL"}, {"measurement": "Serum total cholesterol, Decrease", "setting": "[2]; After 6 weeks, dose 8 (mg.kg)", "value": "−36", "unit": "%"}, {"measurement": "Serum total cholesterol", "setting": "[2]; After 6 weeks, dose 8 (mg.kg), n = 17", "value": "217 ± 58.8", "unit": "mg/dL"}, {"measurement": "Serum total cholesterol, Decrease", "setting": "[2]; After 8 weeks, dose 16 (mg.kg)", "value": "−33", "unit": "%"}, {"measurement": "Serum total cholesterol", "setting": "[2]; After 8 weeks, dose 16 (mg.kg), n = 17", "value": "229 ± 61.5", "unit": "mg/dL"}, {"measurement": "Serum total cholesterol, Decrease", "setting": "[2]; [6]", "value": "−25", "unit": "%"}, {"measurement": "Serum total cholesterol", "setting": "[2]; [6]", "value": "256 ± 57.6", "unit": "mg/dL"}, {"measurement": "Serum total cholesterol, Decrease", "setting": "[2]; [7]", "value": "−22", "unit": "%"}, {"measurement": "Serum total cholesterol", "setting": "[2]; [7]", "value": "264 ± 57.7", "unit": "mg/dL"}, {"measurement": "side effects, subjective or objective", "setting": "[2]; daily dose 1 mg/kg to 16 mg/kg, oral", "value": "no serious side effect; also recorded: no subjective or objective side effect"}, {"measurement": "blood glucose levels of 5 diabetics included in the patients, lowered to", "setting": "[2]; human, in vivo", "value": 100, "unit": "mg/dL"}, {"measurement": "systolic and diastolic blood pressure of patients with hypertension or borderline hypertension", "setting": "[2]; human, in vivo", "value": "lowered"}]}, {"molecule": "CC(/C=C/[C@@]1(C)[C@H](C)CCC(=O)[C@@H]1C)=C\\Cc1c(O)c(C=O)c(C)c(Cl)c1OCC(=O)O", "note": "[Compound-14, 4-O-carboxymethylASC]", "values": [{"measurement": "urinary glucose compared with the control group", "setting": "db/db mice [3]; 0.1% in feed, oral, 40 weeks (11 to 51 weeks after birth)", "value": "scarcely excreted into urine and 1/100"}, {"measurement": "blood glucose level", "setting": "db/db mice [3]; 0.1% in feed, oral, about 40 weeks after birth", "value": "almost comparable to normal litter"}, {"measurement": "function of pancreatic β-cells (insulin productivity)", "setting": "db/db mice [3]; long-term oral administration, about 1 year", "value": "completely sustained over 1 year"}, {"measurement": "urinary protein", "setting": "db/db mice [3]; throughout the experimental period", "value": "ameliorated"}, {"measurement": "blood glucose level, serum lipid level and serum insulin level", "setting": "db/db mice [4]", "value": "significantly lowered"}]}]}
